Assay results taken from patent publication US11214624B2, “Method to prevent cancer metastasis and inhibit inflammation by inhibition of p68 interaction with calmodulin” (Proda Biotech LLC, priority 2012, dated 2022).
“Also recorded” adds a separate entry of the source. No end group written: not given here. TAT = TAT cell-permeable sequence

Key:
E-cadherin and vimentin = assay: PDGF stimulated EMT, cellular levels of EMT markers; type: cell-based
Source text: We also examined whether the peptides would abolish PDGF stimulated EMT by analyzing the cellular levels of EMT markers, E-cadherin and vimentin. […] The effect of the PepIQ peptide on cancer metastasis was confirmed by an additional treatment using the PepIQ and a control peptide with a scrambled sequence (PepScram) (FIG. 6, Table 2, Table 4).

SW620 xenograft [1] = assay: Metastasis inhibition of SW620 xenograft (human CK-18 RT-PCR of spleen extracts); type: in vivo, nude mice; details: for Effect on SW620 metastasis: peptide 2 mg/kg i.p. daily for two weeks
Experimental: (§1) Metastasis inhibition of SW620 xenograft and orthotopic 4T1 tumors: All animal experiments were carried out in accordance with the guidelines of IACUC of Georgia State University. Nude mice or Balb/c mice (6 to 7 weeks old, Harlan Laboratory) were subcutaneously or orthotopically injected with 5×10^6 SW620 or 2×10^6 4T1 cells. Peptides at appropriate doses were administered to the tumor bearing mice by intraperitoneal (i.p.) injection at appropriate time intervals. Tumor formation and volumes were assessed every 2 days. Tumor volumes were measured by two perpendicular diameters of the tumors over a 4-week time course with the formula 4p/3×(width/2)^2×(length/2). The tumors and organs were collected and weighed at the end of the experiments. Tissue sections were prepared from harvested tumors and organs. Tissue sections were analyzed by either H&E or immune staining. For metastasis analyses of SW620 tumors, tissue extracts were prepared from spleens, total RNAs were extracted from the tissue extracts. RT-PCRs were performed with the isolated RNAs. For metastasis of 4T-1 cells, lung and liver were inspected.
The peptides were used to treat a nude mice xenograft of SW620 cells at dose of 2 mg/kg (i.p. daily dose for two weeks). SW620 cells were used because they contain high p68 Y593 phosphorylation (Carter, C L, et al. Oncogene 29:5427-5436 (2010); Yang, L, et al. Mol Cancer Res 3:355-363 (2005)). It is well established that the xenograft of SW620 will metastasize to lymph nodes, and the metastasis can be analyzed by examination of SW620 cells in the spleen (Liu, K, et al. J Immunol 171:4164-4174 (2003)).

[2] = test system: Mouse breast cancer 4T1 cells; assay: Orthotopic 4T1 tumor metastasis model; type: in vivo, Balb/c mouse
Experimental: as §1
The PepIQ was very effective in inhibiting cancer metastasis with xenograft model of SW620 cells, indicating a potential application for metastasis intervention using the peptide or its derivatives. Thus, the effects of the peptide on metastasis in another cancer model was tested. Mouse breast cancer 4T1 cells were implanted into mammary gland of Balb/c mouse. Four days post-tumor implantation, the mice were treated by the PepIQ, the control peptide (PepScram), and buffer by 2 mg/kg daily dose for 14 days via i.p. injection. The mice were sacrificed at 26 days after tumor implantation. The primary tumors and major metastasis organs, lungs and liver, were collected and examined. […] The numbers of visible metastatic nodules in lung in the PepIQ treated group were much less and the nodules were much smaller than those in the PepScram and buffer treated groups (FIGS. 5B-5D). […] To test whether the PepIQ also affected the cell migration of 4T1 cells, cell migration assays were conducted.

4T1 cells = assay: 4T1 cell migration (Boyden chamber and scratch-wound assays); type: cell-based, mouse
Experimental: Scratch-wound treatments: A scratch or multiple scratches using pipette tips were introduced into a 6 well cell culture plate. The cells were further cultured under serum starvation for 30 minutes, and were subsequently cultured for an additional indicated time. The scratch-treated cells were either directly visualized by microscopes or the cells were fixed and subsequently examined by immunostaining. Alternatively, the cells were collected and lysized. The prepared cellular extracts were then used for other analyses. Boyden chamber assay: QCM™ 24-Well Fluorimetric Cell Migration Assay kit was used to measure the migration of SW480 cells. The test cells were first treated under the different conditions in regular cell culture plates. The treated cells were re-suspended into optimum medium (without serum) and seeded into the inner chamber of the migration assay kit. The L-15 culture medium with 10% FBS was added to the outer chambers. After overnight incubation, medium in the inner chamber was removed and the cells attached to the outer bottom side were detached using the cell detachment buffer (included in the kit). The detached cells were then lysed using the cell lysis buffer (included in the kit). The amounts of the migrated cells were determined by measuring the fluorescence using λex=485 nm and λem=535 nm. The migration of the control cells with p68 knockdown was defined as 1. […]

[3] = molecular target: T1, Myosin-II-CaM interaction (Homo sapiens, UniProt P0DP23); assay: Myosin-CaM co-immunoprecipitation in SW480 cell extracts; type: cell-based; details: SW480 cells with/without multiple scratch-wound
T1 construct: endogenous in cells; host or cells: SW480
Experimental: (§2) To test whether the PepIQ peptide disrupted the interaction of IQGAP1 or Myosin-II with CaM, cell extracts of SW480 cells that were treated by the PepIQ with/without multiple scratch-wound were co-immunoprecipitated using the antibody against CaM. […] The results also excluded a possibility that the PepIQ sequestered all CaM in the cells therefore inhibited cell migration. Thus, these experiments supported the notion that cell migration strengthened the p68-CaM interaction, and the IQ peptide disrupted the p68-CaM interaction induced by migration, thereby inhibiting cell migration.

p68 and CaM interaction = molecular target: T2, p68 and CaM interaction (Homo sapiens, UniProt P0DP23); assay: CaM beads pull-down of p68; type: binding; details: no migration stimuli
T2 construct: purchased Abcam; host or cells: p68 comes from SW480 whole cell lysate (endogenous)
Experimental: CaM beads pull-down assay was used to determine whether the PepIQ peptide affected the p68 and CaM interaction. […] Thus, the p68-CaM interaction was examined under migration stimuli by co-immunoprecipitation with extracts of SW480 cells using an antibody against CaM. […] Similarly, there was a strong increase in the p68 and CaM co-precipitation upon the EGF treatment. Calmodulin beads pull-down: Whole cell lysate from SW480 cells was prepared as previously described (Yang L, et al. Cell 127:139-155 (2006); Yang L, et al. Mol Cancer Res 3:355-363 (2005)). The agarose beads conjugated with recombinant calmodulin (Abcam) were pre-washed with Ca2+ containing buffer (2 mM CaCl2, 50 mM NaCl in 50 mM Tris-HCl pH 7.5) or EGTA containing buffer (5 mM EGTA, 50 NaCl in 50 mM Tris-HCl pH 7.5). After washing, the beads were incubated with the whole cell lysates in the Ca^2+ containing or EGTA containing buffer. The beads were extensively washed after incubation. Finally, 2× SDS-loading buffer were added to the beads and the beads were heated to 85° C. for 10 minutes. The proteins that were pulled down by the CaM beads were analyzed by 10% SDS PAGE and subsequent immunoblot.

IQGAP1-CaM interaction = molecular target: T3, IQGAP1-CaM interaction (Homo sapiens, UniProt P0DP23); assay: IQGAP1-CaM co-immunoprecipitation in SW480 cell extracts; type: cell-based; details: SW480 cells with/without multiple scratch-wound
T3 construct: endogenous in cells; host or cells: SW480
Experimental: as §2

SW480 cells = assay: Boyden chamber cell migration assay, SW480; type: cell-based
Experimental: Boyden chamber assay: QCM™ 24-Well Fluorimetric Cell Migration Assay kit was used to measure the migration of SW480 cells. The test cells were first treated under the different conditions in regular cell culture plates. The treated cells were re-suspended into optimum medium (without serum) and seeded into the inner chamber of the migration assay kit. The L-15 culture medium with 10% FBS was added to the outer chambers. After overnight incubation, medium in the inner chamber was removed and the cells attached to the outer bottom side were detached using the cell detachment buffer (included in the kit). The detached cells were then lysed using the cell lysis buffer (included in the kit). The amounts of the migrated cells were determined by measuring the fluorescence using λex=485 nm and λem=535 nm. The migration of the control cells with p68 knockdown was defined as 1.

SW620 xenograft [4] = assay: Metastasis inhibition of SW620 xenograft (human CK-18 RT-PCR of spleen extracts); type: in vivo, nude mice
p68-CaM interaction = molecular target: T4, p68-CaM interaction (Homo sapiens, UniProt P0DP23); assay: p68-CaM co-immunoprecipitation in scratch-wound treated SW480 cells; type: cell-based; details: co-immunoprecipitation with antibody against CaM
T4 construct: co-immunoprecipitation with extracts of SW480 cells using an antibody against CaM; endogenous in cells; host or cells: SW480
Experimental: Scratch-wound treatments: A scratch or multiple scratches using pipette tips were introduced into a 6 well cell culture plate. The cells were further cultured under serum starvation for 30 minutes, and were subsequently cultured for an additional indicated time. The scratch-treated cells were either directly visualized by microscopes or the cells were fixed and subsequently examined by immunostaining. Alternatively, the cells were collected and lysized. The prepared cellular extracts were then used for other analyses.
CaM beads pull-down assay was used to determine whether the PepIQ peptide affected the p68 and CaM interaction. […] Thus, the p68-CaM interaction was examined under migration stimuli by co-immunoprecipitation with extracts of SW480 cells using an antibody against CaM. […] Similarly, there was a strong increase in the p68 and CaM co-precipitation upon the EGF treatment.
To test whether the PepIQ abolished the enhancement of the p68-CaM interaction induced by cell migration, the p68-CaM interaction was probed in cell lysate of SW480 cells that were treated by the peptide.

[5] = test system: Rhodamine labeled microtubules; assay: Microtubule gliding assay; type: biochemical; design: % of gliding microtubules (n = 50): dose or concentration left out as unconfirmed; details: for % of gliding microtubules (n = 50): only MTs with gliding speed >0.025 μm/min counted; for Mean gliding speed: only MTs with motility >0.05 μM/min
Experimental: The slide was blocked with the blocking buffer. For the slide loaded with HA-p68, 10 μl of calmodulin with 0.5 mM of Ca^2+ was added to the slide and was incubated for 10 minutes. After loading the slide was washed with the Ca^2+ containing wash buffer to remove the unbound proteins. The prepared Rodamine labeled microtubules were then loaded onto the slide. The same Ca^2+ containing wash buffer was used to remove unbound microtubules. The movement of microtubules was then recorded by the confocal microscope.
HA-p68 was purified from SW480 cells with/without scratch-wound treatment and attached to a glass slide. Rhodamine-labeled microtubule was then added to the glass slide. Migration of the microtubule in the presence and absence of ATP was then recorded.

[6] = Table 1, TAT-fused peptides 2 mg/kg i.p. daily for two weeks, mice with metastasis/mice in group
[7] = vs PepScram and buffer treated groups

PepY593: p68 aa 584-602 peptide MHNGMNQQAYAYPATAAAP (SEQ ID NO:2), without Y593 phosphorylation, TAT-fused at N-terminus; control peptide ({TAT}-MHNGMNQQAYAYPATAAAP)
Levels of E-cadherin and vimentin (E-cadherin and vimentin): not significantly affected
Metastasis rate (SW620 xenograft [1]; [6]): 5/5

PepIQ (FASGQINTFVSRGTPGYATGMHNGMNQQAPYAYPATAAAPFVSAGIQTSFRTGNPTGAYG)
Levels of E-cadherin and vimentin (E-cadherin and vimentin): not significantly affected
Cancer metastasis in the lung (mice affected) ([2]; 2 mg/kg daily for 14 days i.p.): 3 out of 4
Mice with no micrometastasis lesion in liver tissue sections ([2]; 2 mg/kg daily for 14 days i.p.): two out of four
Average numbers of micrometastasis lesions in liver ([2]; 4 fields from three tissue sections per liver, vs buffer and PepScram groups): substantially less
Numbers of visible metastatic nodules in lung [2, 7]: much less
Size of metastatic nodules in lung [2, 7]: much smaller
Size of micrometastasis lesions in liver ([2]; vs control groups): substantially smaller
Metastasis rate (SW620 xenograft [1]; [6]): 1/5
Metastasis rate (SW620 xenograft [1]; Table 2, additional treatment, PepIQ vs scrambled control peptide): 2/5
Effect on SW620 metastasis (SW620 xenograft [1]): largely diminished; also recorded: inhibited the metastasis
Cell migration of 4T1 cells (4T1 cells): dramatically reduced
Myosin-CaM interaction [3]: not affected
Change in p68-CaM interaction (p68 and CaM interaction): did not lead to dramatic changes
IQGAP1-CaM interaction (IQGAP1-CaM interaction): not affected
Cell migration (SW480 cells; SW480 cells treated with peptide): almost completely inhibited

eGFP-IQ: fusion protein containing amino acids 549-568 of p68 fused to the C-terminus of eGFP, expressed in SW620/SW480 cells (FVSAGIQTSFRTGNPTGTYQ; also: fused to C-terminus of eGFP)
Metastasis rate (SW620 xenograft [4]; Table 3, xenograft of SW620 cells expressing the protein): 2/6
Effect on cancer metastasis of the SW620 xenograft (SW620 xenograft [4]; protein expressed in SW620 cells): greatly reduced
Increase in the p68-CaM interaction upon multiple scratch wound (p68-CaM interaction): not dramatically strengthened
Cell migration (SW480 cells; stable expression in SW480 cells): dramatically inhibited

PepPhoY593: p68 aa 584-602 peptide with Y593 phosphorylation, MHNGMNQQA[p]YAYPATAAAP (SEQ ID NO:3), TAT-fused at N-terminus
Levels of E-cadherin and vimentin (E-cadherin and vimentin): decrease in vimentin and an increase in Ecadherin
Metastasis rate (SW620 xenograft [1]; [6]): 3/5
Effect on SW620 metastasis (SW620 xenograft [1]): almost no effects; also recorded: no effects on cancer metastasis

p68/Ca^2+-CaM: HA-p68 immunopurified from scratch-wound treated SW480 cells, in the presence of CaM and Ca2+
Maximum gliding speed ([5]; ATP): 0.52 ± 0.14 μm/min
% of gliding microtubules (n = 50) ([5]; ATP): 74.15 ± 1.20%
Mean gliding speed ([5]; ATP): 0.16 ± 0.12 μm/min
Maximum gliding speed ([5]; no ATP): 0.01 ± 0.00 μm/min
% of gliding microtubules (n = 50) ([5]; no ATP): 5.79 ± 3.13%
Mean gliding speed ([5]; no ATP): 0.00 ± 0.00 μm/min
